Test results from patent US20080161309A1, “Novel Compounds” (priority 2004, published 2008).
Where a name gives a salt, the structure may show the parent alone.

Experiments:
[1] = target: T1, human norepinephrine transporter (hNET) (Homo sapiens, UniProt P23975); assay: hNET receptor binding, [125I]-RTI-55, HEK-293 membranes; details: Cheng-Prusoff, read-out: NET Ki
T1 construct: expressed in transfected cells; host or cells: HEK-293, membranes
Method: Cell pastes of HEK-293 cells transfected with a human norepinephrine transporter cDNA were prepared. The cell pastes were resuspended in 400 to 700 ml of Krebs-HEPES assay buffer (25 mM HEPES, 122 mM NaCl, 3 mM KCl, 1.2 mM MgSO4, 1.3 mM CaCl2, and 11 mM glucose, pH 7.4) with a Polytron homogenizer at setting 7 for 30 seconds. Aliquots of membranes (5 mg/ml protein) were stored in liquid nitrogen until used.
The binding assay was set up in Beckman deep-well polypropylene plates with a total volume of 250 μl containing: drug (10^−5M to 10^−12M), cell membranes, and […] [^125I]-RTI-55 (Perkin Elmer, NEX-272; specific activity 2200 Ci/mmol). The reaction was incubated by gentle agitation for 90 minutes at room temperature and was terminated by filtration through Whatman GF/C filter plates using a Brandel 96-well plate harvester. Scintillation fluid (100 μl) was added to each well, and bound [^125I]-RTI-55 was determined using a Wallac Trilux Beta Plate Counter. Test compounds were run in duplicate, and specific binding was defined as the difference between binding in the presence and absence of 10 μM desipramine.
Excel and GraphPad Prism software were used for data calculation and analysis. IC50 values were converted to Ki values using the Cheng-Prusoff equation. The Ki values (nM) for the hNET are reported below in Table 1.

[2] = target: T2, human serotonin transporter (hSERT) (Homo sapiens, UniProt P31645); assay: hSERT receptor binding, [125I]-RTI-55, HEK-293 membranes; details: [125I]-RTI-55, HEK-293 membranes, Cheng-Prusoff; read-out: SERT Ki
T2 construct: expressed in transfected cells; host or cells: HEK-293, membranes
Method: Cell pastes of HEK-293 cells transfected with a human serotonin transporter cDNA were prepared. […] Aliquots of membranes (−2.5 mg/ml protein) were stored in liquid nitrogen until used.
The reaction was incubated and gently agitated for 90 minutes at room temperature, and terminated by removal of assay volume. […] Test compounds were run in duplicate, and specific binding was defined as the difference between binding in the presence and absence of 10 μM citalopram. Excel and GraphPad Prism software were used for data calculation and analysis. IC50 values were converted to Ki values using the Cheng-Prusoff equation.

T2 sequence (P31645 whole entry): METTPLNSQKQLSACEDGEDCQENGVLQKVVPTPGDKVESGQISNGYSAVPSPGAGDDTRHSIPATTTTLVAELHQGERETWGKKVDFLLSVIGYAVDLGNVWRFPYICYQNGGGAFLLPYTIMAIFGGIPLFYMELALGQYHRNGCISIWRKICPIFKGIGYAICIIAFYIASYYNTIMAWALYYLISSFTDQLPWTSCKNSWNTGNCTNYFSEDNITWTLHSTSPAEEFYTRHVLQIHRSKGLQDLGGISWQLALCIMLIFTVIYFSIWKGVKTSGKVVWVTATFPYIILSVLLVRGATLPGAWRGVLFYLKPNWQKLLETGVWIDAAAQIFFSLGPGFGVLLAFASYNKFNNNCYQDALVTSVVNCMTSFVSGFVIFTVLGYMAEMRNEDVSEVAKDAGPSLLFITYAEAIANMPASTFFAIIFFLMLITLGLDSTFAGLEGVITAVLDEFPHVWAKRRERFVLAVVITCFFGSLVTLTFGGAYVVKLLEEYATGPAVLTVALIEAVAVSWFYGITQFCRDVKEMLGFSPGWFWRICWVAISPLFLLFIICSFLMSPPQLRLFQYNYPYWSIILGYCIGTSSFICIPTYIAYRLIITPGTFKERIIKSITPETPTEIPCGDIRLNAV
T1 sequence (P23975 whole entry): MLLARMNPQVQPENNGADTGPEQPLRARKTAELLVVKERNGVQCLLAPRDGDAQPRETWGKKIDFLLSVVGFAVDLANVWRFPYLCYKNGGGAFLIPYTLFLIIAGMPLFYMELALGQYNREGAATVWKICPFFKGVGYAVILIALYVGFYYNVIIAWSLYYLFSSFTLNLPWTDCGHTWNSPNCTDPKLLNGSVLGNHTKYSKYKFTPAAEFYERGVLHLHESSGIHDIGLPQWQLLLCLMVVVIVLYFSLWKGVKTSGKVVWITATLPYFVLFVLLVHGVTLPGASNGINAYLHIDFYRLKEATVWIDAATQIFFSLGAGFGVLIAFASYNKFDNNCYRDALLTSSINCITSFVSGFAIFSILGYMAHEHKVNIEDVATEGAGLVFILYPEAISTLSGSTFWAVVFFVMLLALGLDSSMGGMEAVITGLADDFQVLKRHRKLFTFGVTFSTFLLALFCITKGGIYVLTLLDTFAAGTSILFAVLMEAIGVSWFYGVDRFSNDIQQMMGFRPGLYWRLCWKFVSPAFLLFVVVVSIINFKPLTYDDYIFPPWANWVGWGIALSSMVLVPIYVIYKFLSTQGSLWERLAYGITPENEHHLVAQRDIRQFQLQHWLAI

Row | Molecule | Ki [1] [nM] | Ki [2] [nM]
1 | COc1cc(F)ccc1O[C@@H](c1cccc(C)c1)[C@@H]1CNCCO1 [Example 57, (2S)-2-[(1S)-(4-Fluoro-2-methoxyphenoxy)-m-tolyl-methyl] morpholine hydrochloride] | 19.7 | 544
2 | Cc1c(Cl)cccc1O[C@@H](c1ccccc1)[C@@H]1CNCCO1 [Example 82, (2S)-2-[(1S)-(3-Chloro-2-methylphenoxy)phenylmethyl] morpholine fumarate] | 11.9 | 12.1
3 | COc1cc(Br)ccc1O[C@@H](c1ccccc1)[C@@H]1CNCCO1 [Example 94, (2S)-2-[(1S)-(4-Bromo-2-methoxyphenoxy)phenylmethyl] morpholine fumarate] | 12.1 | 22.3
4 | (2S)-2-[(1S)-Pentachlorophenyloxy phenyl methyl] morpholine fumarate [Example 95] | 587 | 39.6
5 | COc1cc(C)ccc1O[C@@H](c1cccc(C)c1)[C@@H]1CNCCO1 [Example 55, (2S)-2-[(1S)-(2-Methoxy-4-methylphenoxy)-m-tolyl-methyl] morpholine hydrochloride] | 20.4 | 109
6 | Fc1cccc([C@H](Oc2ccc(Cl)cc2F)[C@@H]2CNCCO2)c1 [Example 44, (2S)-2-[(1S)-(4-Chloro-2-fluorophenoxy)(3-fluorophenyl)methyl] morpholine hydrochloride] | 33.3 | 74.8
7 | COc1cc(F)ccc1O[C@@H](c1ccc(Cl)cc1)[C@@H]1CNCCO1 [Example 71, (2S)-2-[(1S)-(4-Chloro-phenyl) (4-fluoro-2-methoxyphenoxy)methyl] morpholine hydrochloride] | 28.6 | 77.7
8 | Cc1cccc([C@H](Oc2cc(F)ccc2Cl)[C@@H]2CNCCO2)c1 [Example 59, (2S)-2-[(1S)-(2-Chloro-5-fluorophenoxy)-m-tolyl-methyl] morpholine hydrochloride] | 10.3 | 524
9 | Fc1cccc([C@H](Oc2cccc(F)c2F)[C@@H]2CNCCO2)c1 [Example 39, (2S)-2-[(1S)-(2,3-Difluorophenoxy)(3-fluorophenyl)methyl] morpholine hydrochloride] | 3.77 | 142
10 | COc1ccc(Cl)cc1O[C@@H](c1ccccc1)[C@@H]1CNCCO1 [Example 84, (2S)-2-[(1S)-(5-Chloro-2-methoxyphenoxy)phenylmethyl]morpholine fumarate] | 10.1 | 437
11 | COc1ccc(Cl)c(O[C@@H](c2ccccc2)[C@@H]2CNCCO2)c1 [Example 97, (2S)-2-[(1S)-(2-Chloro-5-methoxyphenoxy)phenylmethyl] morpholine fumarate] | 42.5 | 134
12 | Fc1cc(F)c(O[C@@H](c2ccccc2)[C@@H]2CNCCO2)c(F)c1 [Example 86, (2S)-2-[(1S)-Phenyl-(2,4,6-trifluorophenoxy)methyl] morpholine fumarate] | 14.3 | 652
13 | Fc1cccc([C@H](Oc2ccc(F)cc2F)[C@@H]2CNCCO2)c1 [Example 64, (2S)-2-[(1S)-(2,4-Difluorophenoxy) (3-fluoro-phenyl)methyl] morpholine hydrochloride] | 13.8 | 511
14 | COc1cc(Cl)ccc1O[C@@H](c1cccc(C)c1)[C@@H]1CNCCO1 [Example 54, (2S)-2-[(1S)-(4-Chloro-2-methoxyphenoxy)-m-tolyl-methyl] morpholine hydrochloride] | 23.7 | 41.7
15 | COc1cccc(F)c1O[C@@H](c1cccc(F)c1)[C@@H]1CNCCO1 [Example 50, (2S)-2-[(1S)-(2-Fluoro-6-methoxyphenoxy)(3-fluorophenyl)methyl] morpholine hydrochloride] | 8 | 1070
16 | COc1cc(C(F)(F)F)ccc1O[C@@H](c1ccccc1)[C@@H]1CNCCO1 [Example 99, (2S)-2-[(1S)-(2-Methoxy-4-trifluoromethylphenoxy)phenylmethyl] morpholine fumarate] | 188 | 35.8
17 | COc1cccc([C@H](Oc2ccc(F)cc2OC)[C@@H]2CNCCO2)c1 [Example 68, (2S)-2-[(1S)-(4-Fluoro-2-methoxyphenoxy) (3-methoxyphenyl)methyl] morpholine hydrochloride] | 20.1 | 408
18 | Fc1c(F)c(F)c(O[C@@H](c2ccccc2)[C@@H]2CNCCO2)c(F)c1F [Example 85, (2S)-2-[(1S)-(Pentafluorophenyloxy) (phenyl)methyl] morpholine fumarate] | 10.9 | 385
19 | COc1cc(C)ccc1O[C@@H](c1ccc(F)cc1)[C@@H]1CNCCO1 [Example 42, (2S)-2-[(1S)-(2-methoxy-4-methylphenoxy)4-fluorophenyl) methyl] morpholine hydrochloride] | 11.4 | 69.2
20 | COc1ccc(O[C@@H](c2ccccc2)[C@@H]2CNCCO2)c(Cl)c1 [Example 96, (2S)-2-[(1S)-(2-Chloro-4-methoxyphenoxy)phenylmethyl] morpholine fumarate] | 25.7 | 47
21 | Fc1cccc([C@H](Oc2ccc(C(F)(F)F)cc2)[C@@H]2CNCCO2)c1 [Example 67, (2S)-2-[(1S)-(3-Fluorophenyl) (4-trifluoromethyl phenoxy)methyl] morpholine hydrochloride] | 390 | 35.5
22 | Cc1ccccc1O[C@@H](c1cccc(F)c1)[C@@H]1CNCCO1 [Example 49, (2S)-2-[(1S)-(3-Fluorophenyl)-o-tolyloxy-methyl] morpholine hydrochloride] | 6.8 | 194
23 | COc1cc(Cl)ccc1O[C@@H](c1ccccn1)[C@@H]1CNCCO1 [Example 103, (2S)-2-[(1S)-(4-chloro-2-methoxyphenoxy)(pyridin-2-yl)methyl]morpholine fumarate] | 12.8 | 101
24 | COc1cc(C)ccc1O[C@H](c1ccc(F)cc1)[C@H]1CNCCO1 [Example 43, (2R)-2-[(1R)-(2-Methoxy-4-methylphenoxy)4-Fluorophenyl) methyl] morpholine hydrochloride] | 1700 | 4.7
25 | COc1ccc(O[C@@H](c2cccc(C)c2)[C@@H]2CNCCO2)c(OC)c1 [Example 58, (2S)-2-[(1S)-(2,4-Dimethoxyphenoxy)-m-tolyl-methyl] morpholine hydrochloride] | 42.9 | 474
26 | COc1cccc([C@H](Oc2ccc(F)cc2Cl)[C@@H]2CNCCO2)c1 [Example 63, (2S)-2-[(1S)-(2-Chloro-4-fluorophenoxy)-(3-methoxyphenyl)methyl] morpholine hydrochloride] | 3.21 | 124
27 | COc1cccc([C@H](Oc2ccc(Cl)cc2OC)[C@@H]2CNCCO2)c1 [Example 61, (2S)-2-[(1S)-(4-Chloro-2-methoxyphenoxy) (3-methoxyphenyl)methyl] morpholine hydrochloride] | 20.1 | 38
28 | FC(F)(F)c1ccc(Cl)c(O[C@@H](c2ccccc2)[C@@H]2CNCCO2)c1 [Example 88, (2S)-2-[(1S)-(2-Chloro-5-trifluoromethylphenoxy)phenylmethyl] morpholine fumarate] | 420 | 760
